For test [1], the target named is T1, F508del/F508del CFTR (Homo sapiens, UniProt P13569, DEL508-508).
T1 construct: cells isolated from CF patients with the homozygous mutation; endogenous in cells; host or cells: primary human bronchial epithelial (hBE) cells from F508del/F508del CF patients
Kind of test: Transepithelial Clamp Circuit (TECC-24) conductance assay on primary human bronchial epithelial cells. The format is cell-based. The following applies: primary hBE cells F508del/F508del. The source says:
A cell based assay using the primary human bronchial epithelial cells (hBE) was used as a secondary assay to test novel F508delCFTR correctors for their activity on primary hBE cells with F508del/F508del CFTR mutation. The assay used a TECC-24 (Transepithelial Clamp Circuit for 24 wells) instrument that measures the functionality of the mutated channel by measuring the equivalent short circuit current (Ieq) generated by the polarized epithelial cells. The instrument works by measuring the transepithelial potential difference (Vt) and transepithelial resistance (Rt) in an open circuit format, and the Ieq is calculated by using Ohms law (Ieq=Vt/Rt). The assay was run in a 24-well format and all 24-wells were measured at the same time point giving a higher throughput for this assay.
Primary human bronchial epithelial (hBE) cells from F508del/F508delCFTR patients were expanded from 1×10^6 to 250×10^6 cells (Neuberger T, Burton B, Clark H and VanGoor F; Cystic Fibrosis, Methods in Mole Biol 741; eds. Amaral M D and Kunzelmann K, 2011). […]
The % activity measured at each of the 6 test concentrations of the test compound was normalized to the on-plate positive control using the following formula: […]

The target in test [2] is F508delCFTR (Homo sapiens, UniProt P13569, DEL508-508). Kind of test: Cell Surface Expression-Horse Radish Peroxidase (CSE-HRP) assay. The settings on record: CFBE41o-F508delCFTR-HRP cells. The format is cell-based. On the procedure:
A cellular assay for measuring the F508delCFTR cell surface expression after correction with test compounds was developed in human lung derived epithelial cell line (CFBE41o-) (Veit G et al, (2012) Mol Biol Cell. 23(21): 4188-4202). This was achieved by expressing the F508delCFTR mutation along with a horseradish peroxidase (HRP) in the fourth exofacial loop and then measuring the HRP activity using luminescence readout from these cells, CFBE41o-F508delCFTR-HRP, that were incubated overnight with the test corrector compounds. […] Post incubation, the plates were washed 5 x times with Dulbecco's phosphate buffered saline (DPBS), followed by the addition of the HRP substrate, luminol (50 μL), and measuring the HRP activity using luminescence readout on EnVision® Multilabel Plate Reader (Perkin Elmer; product number 2104-0010). The raw counts from the experiment are analyzed using Accelrys® Assay Explorer v3.3. […]
The % activity measured at each of the 8 test concentrations of the test compound was normalized to the on-plate positive control using the following formula: […]
The maximum % activity achieved for the test compound at any tested concentration is presented in Table 1 along with the EC50 calculated using the following general sigmoidal curve with variable Hill slope equation (described as Model 42 in the Accelrys® Assay Explorer v3.3 software): […]

One may read the EC50 as the concentration giving half of the maximal effect.

Sequence of F508delCFTR (P13569 with tags, fused parts or gaps DEL508-508): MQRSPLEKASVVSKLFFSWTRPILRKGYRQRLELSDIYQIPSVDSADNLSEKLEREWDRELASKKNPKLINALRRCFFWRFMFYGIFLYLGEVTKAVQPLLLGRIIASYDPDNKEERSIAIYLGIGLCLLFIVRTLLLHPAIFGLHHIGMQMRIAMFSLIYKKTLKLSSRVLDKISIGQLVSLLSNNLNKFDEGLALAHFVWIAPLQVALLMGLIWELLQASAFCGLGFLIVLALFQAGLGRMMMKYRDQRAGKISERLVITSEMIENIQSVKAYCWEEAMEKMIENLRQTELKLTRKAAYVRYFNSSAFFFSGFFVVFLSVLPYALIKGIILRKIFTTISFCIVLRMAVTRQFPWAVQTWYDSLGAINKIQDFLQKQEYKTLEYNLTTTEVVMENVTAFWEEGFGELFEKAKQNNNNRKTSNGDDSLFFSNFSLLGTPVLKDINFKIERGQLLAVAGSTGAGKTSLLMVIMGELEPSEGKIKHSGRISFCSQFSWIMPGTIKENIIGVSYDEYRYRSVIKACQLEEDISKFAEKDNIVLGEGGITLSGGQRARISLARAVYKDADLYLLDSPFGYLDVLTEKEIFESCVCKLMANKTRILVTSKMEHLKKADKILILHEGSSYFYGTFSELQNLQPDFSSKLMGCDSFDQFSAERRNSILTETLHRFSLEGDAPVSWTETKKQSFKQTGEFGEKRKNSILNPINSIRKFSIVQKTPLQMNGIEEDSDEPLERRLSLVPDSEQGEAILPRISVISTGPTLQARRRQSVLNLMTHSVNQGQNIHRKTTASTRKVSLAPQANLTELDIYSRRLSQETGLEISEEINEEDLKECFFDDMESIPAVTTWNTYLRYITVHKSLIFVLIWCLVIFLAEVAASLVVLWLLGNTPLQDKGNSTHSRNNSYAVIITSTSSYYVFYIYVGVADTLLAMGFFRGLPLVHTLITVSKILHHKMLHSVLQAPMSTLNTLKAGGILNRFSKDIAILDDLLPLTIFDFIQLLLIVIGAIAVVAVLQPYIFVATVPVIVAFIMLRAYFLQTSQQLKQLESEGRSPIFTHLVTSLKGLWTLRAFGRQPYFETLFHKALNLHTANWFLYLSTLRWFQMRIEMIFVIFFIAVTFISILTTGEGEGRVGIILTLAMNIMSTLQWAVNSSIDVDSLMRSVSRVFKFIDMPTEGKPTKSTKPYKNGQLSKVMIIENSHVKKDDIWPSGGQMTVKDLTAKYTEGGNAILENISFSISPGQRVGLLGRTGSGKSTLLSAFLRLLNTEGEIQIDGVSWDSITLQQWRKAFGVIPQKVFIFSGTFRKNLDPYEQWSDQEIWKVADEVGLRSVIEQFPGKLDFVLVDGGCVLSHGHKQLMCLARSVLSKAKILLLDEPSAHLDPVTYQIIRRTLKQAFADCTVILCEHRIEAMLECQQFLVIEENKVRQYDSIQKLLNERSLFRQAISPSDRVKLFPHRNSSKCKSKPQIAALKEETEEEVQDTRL
T1 sequence (P13569 with tags, fused parts or gaps DEL508-508): as above

As to `[2H]c1cc(C(=O)O)cc([2H])c1C1Oc2cc(OC(F)F)c([2H])c([2H])c2C([2H])(NC(=O)C2(c3ccc4c(c3)OC(F)(F)O4)CC2)C1([2H])[2H]` [Example 1, 4-[(2R,4R)-4-({[1-(2,2-difluoro-1,3-benzodioxol-5-yl)cyclopropyl]carbonyl}amino)-7-(difluoromethoxy)(3,3,4,5,6-^2H5)-3,4-dihydro-2H-chromen-2-yl](3,5-^2H2)benzoic acid], the EC50 came to 13 nM in test [1] (18-24 hours at 37° C., equivalent short circuit current (Ieq), with control potentiator) and 27 nM in test [2] (F508delCFTR cell surface expression, 18-24 hours at 33° C., luminescence readout). Besides, the Maximum % activity in test [1] (relative to positive control (0.15 μM) coupled with control potentiator = 100%) was determined as 96%; in test [2] (maximum at any tested concentration, normalized to on-plate positive control (3 μM)) it was 145%.

Values taken from patent US20200123137A1, “DEUTERATED CFTR MODULATORS AND METHODS OF USE” (ABBVIE S.À.R.L., priority 2016, published 2020).
